In US7410986B2, “4-6-diphenyl pyridine derivatives as antiinflammatory agents” (Bayer Aktiengesellschaft, priority 2000, dated 2008) one finds IC50 data, which are given here for 24 molecules.

One assay concerns the target T1, human IKK-β (Homo sapiens, UniProt O14920).
T1 construct: A cDNA fragment encoding human IKK-β open reading frame was generated by PCR; His; made in house; host or cells: Sf21 insect cells (baculovirus); the GST-IκBα substrate was made in E. coli
T1 sequence (O14920 1-756): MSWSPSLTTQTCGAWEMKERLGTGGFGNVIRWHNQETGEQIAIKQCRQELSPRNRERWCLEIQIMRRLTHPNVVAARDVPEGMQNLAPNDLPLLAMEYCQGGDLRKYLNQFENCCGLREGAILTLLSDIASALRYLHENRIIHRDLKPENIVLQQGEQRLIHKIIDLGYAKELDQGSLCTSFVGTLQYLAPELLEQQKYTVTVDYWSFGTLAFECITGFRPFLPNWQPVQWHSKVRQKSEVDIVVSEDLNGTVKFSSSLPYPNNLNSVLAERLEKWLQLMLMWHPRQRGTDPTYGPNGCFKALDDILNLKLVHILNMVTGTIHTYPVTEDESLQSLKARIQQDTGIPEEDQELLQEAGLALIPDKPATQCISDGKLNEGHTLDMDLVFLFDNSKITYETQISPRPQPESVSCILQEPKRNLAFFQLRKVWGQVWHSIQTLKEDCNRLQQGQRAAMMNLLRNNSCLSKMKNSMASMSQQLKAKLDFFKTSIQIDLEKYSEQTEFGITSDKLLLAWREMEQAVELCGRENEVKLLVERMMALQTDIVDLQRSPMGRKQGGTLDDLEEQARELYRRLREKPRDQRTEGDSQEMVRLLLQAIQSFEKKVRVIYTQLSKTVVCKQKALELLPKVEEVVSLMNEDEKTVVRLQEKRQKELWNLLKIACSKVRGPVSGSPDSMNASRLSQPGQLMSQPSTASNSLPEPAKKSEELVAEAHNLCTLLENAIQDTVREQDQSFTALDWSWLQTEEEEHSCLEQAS
The assay is described as follows: IKK-β kinase inhibitory assay. In kind it is biochemical. The following applies: compounds of about 40 to 90% purity, read-out: In vitro activity grade (invitro, IC50). The procedure, abridged:
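His-tagged human IKK-β from baculovirus-infected Sf21 cells (final 0.6 μg/ml) with biotinylated GST-IκBα (1-54) (final 0.2 μM) in Tris-HCl pH 7.6/MgCl2 buffer with 2.5% DMSO compound. Reaction started with ATP plus [γ-^33P] ATP, 2 hrs at room temperature; EDTA-stopped, substrate captured on streptavidin plates and bound radioactivity counted by scintillation.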

Assay [1] relates to RANTES production in response to TNF-α from A549 cells. The assay is described as follows: RANTES production in response to TNF-α from A549 cells. It counts as cell-based, human. The following applies: 100 ng/ml TNF-α, compounds of about 40 to 90% purity, read-out: Cellular activity grade (A549, IC50).

Counter-ions that a name gives are not always drawn. Like-named read-outs stand apart in the source and are kept apart here. Where only a bound is given, the exact number is not on record here.

Consider `CCOC(=O)C1CCN(CCC(=O)Nc2cccc(-c3cc(-c4ccccc4O)nc(N)c3C#N)c2)CC1` [Example 4-26], for which the IC50 is 500 to 2000 nM at human IKK-β and above 10000 nM in assay [1] (Homo sapiens, A549, 24 h).
Taken in the same sequence, the figures for `CCOC(=O)C1CCCN(CCC(=O)Nc2cccc(-c3cc(-c4ccccc4O)nc(N)c3C#N)c2)C1` (stereo not drawn) [Example 4-27] were 2000 to 10000 nM and 1000 to 10000 nM.
The like results for `N#Cc1c(-c2cccc(NC(=O)CCN3CCC(C(=O)O)CC3)c2)cc(-c2ccccc2O)nc1N` [Example 4-28] were, in that order, 2000 to 10000 nM and above 10000 nM.
On to `N#Cc1c(-c2cccc(NC(=O)CCN3CCCC(C(=O)O)C3)c2)cc(-c2ccccc2O)nc1N` (stereo not drawn) [Example 4-29], for which the IC50 on human IKK-β is 500 to 2000 nM; in assay [1] (Homo sapiens, A549, 24 h), above 10000 nM.
Taken in the same sequence, the figures for `N#Cc1c(-c2ccc(Cl)c(NC(=O)CNCC3CC3)c2)cc(-c2ccccc2O)nc1N` [Example 4-30] were 500 to 2000 nM and above 10000 nM.
Taken in the same sequence, the figures for `COCCNCC(=O)Nc1cc(-c2cc(-c3ccccc3O)nc(N)c2C#N)ccc1OCC1CC1` [Example 4-32] were 2000 to 10000 nM and 1000 to 10000 nM.
For `CCCCNCC(=O)Nc1cc(-c2cc(-c3ccccc3O)nc(N)c2C#N)ccc1OCC1CC1` [Example 4-33], the IC50 at human IKK-β is above 10000 nM; in assay [1] (Homo sapiens, A549, 24 h), above 10000 nM.
For the molecule `N#Cc1c(-c2ccc(OCC3CC3)c(NC(=O)CNCC3CC3)c2)cc(-c2ccccc2O)nc1N` [Example 4-34], the IC50 was above 10000 nM at human IKK-β and 1000 to 10000 nM in assay [1] (Homo sapiens, A549, 24 h).
Taken in the same sequence, the figures for `N#Cc1c(-c2ccc(OCC3CC3)c(NC(=O)CN3CCCCC3)c2)cc(-c2ccccc2O)nc1N` [Example 4-35] were above 10000 nM and above 10000 nM.
As for `CN(C)c1ccc(-c2cc(-c3ccccc3O)nc(N)c2C#N)cc1NC(=O)CCN1CCCCC1` [Example 4-36], the IC50 at human IKK-β is 500 to 2000 nM; in assay [1] (24 hrs), 1000 to 10000 nM.
With `COCCNCC(=O)Nc1cc(-c2cc(-c3ccccc3O)nc(N)c2C#N)ccc1N1CCC(NC(=O)C(F)(F)F)C1` (stereo not drawn) [Example 4-37], the IC50 was below 500 nM at human IKK-β and 1000 to 10000 nM in assay [1] (Homo sapiens, A549, 24 h).
Regarding `N#Cc1c(-c2ccc(N3CCC(NC(=O)C(F)(F)F)C3)c(NC(=O)CNCC3CC3)c2)cc(-c2ccccc2O)nc1N` (stereo not drawn) [Example 4-38], the IC50 at human IKK-β was below 500 nM; in assay [1] (Homo sapiens, A549, 24 h) it was 1000 to 10000 nM.
The like results for `N#Cc1c(-c2cccc(C(=O)O)c2)cc(-c2ccccc2O)nc1N` [Example 5-1, Sodium 3-[2-amino-3-cyano-6-(2-hydroxyphenyl)-4-pyridinyl]benzoate] were, in that order, 2000 to 10000 nM and above 10000 nM.
Taken in the same sequence, the figures for `N#Cc1c(-c2ccc(C(=O)O)cc2)cc(-c2ccccc2O)nc1N` [Example 5-02] were 500 to 2000 nM and above 10000 nM.
The like results for `N#Cc1c(-c2ccccc2C(=O)O)cc(-c2ccccc2O)nc1N` [Example 5-05] were, in that order, 500 to 2000 nM and above 10000 nM.
In the case of `N#Cc1c(-c2cccc(C(=O)NCCN3CCCCC3)c2)cc(-c2ccccc2O)nc1N` [Example 6-1, 3-[2-amino-3-cyano-6-(2-hydroxyphenyl)-4-pyridinyl]-N-[2-(1-piperidinyl)ethyl]benzamide trifluoroacetate], the IC50 lay in the range of 2000 to 10000 nM at human IKK-β and 1000 to 10000 nM in assay [1] (Homo sapiens, A549, 24 h).
Taken in the same sequence, the figures for `N#Cc1c(-c2ccc(C(=O)NCCN3CCCCC3)cc2)cc(-c2ccccc2O)nc1N` [Example 6-02] were 500 to 2000 nM and above 10000 nM.
With `N#Cc1c(-c2ccccc2C(=O)NCCN2CCCCC2)cc(-c2ccccc2O)nc1N` [Example 6-03], the IC50 is below 500 nM at human IKK-β and 1000 to 10000 nM in assay [1] (Homo sapiens, A549, 24 h).
The like results for `Nc1cccc(-c2cc(-c3ccccc3O)nc(N)c2C(=O)O)c1` [Example 7-1, Sodium 2-amino-4-(3-aminophenyl)-6-(2-hydroxyphenyl)nicotinate] were, in that order, 2000 to 10000 nM and above 10000 nM.
Turning to `NC(=O)c1c(-c2cccc(NC(=O)C(O)CCC(=O)O)c2)cc(-c2ccccc2O)nc1N` (stereo not drawn) [Example 7-2, Sodium 5-({3-[2-amino-3-(aminocarbonyl)-6-(2-hydroxyphenyl)-4-pyridinyl]-phenyl}amino)-4-hydroxy-5-oxopentanoate], the IC50 on human IKK-β was 2000 to 10000 nM; in assay [1] (Homo sapiens, A549, 24 h), above 10000 nM.
Turning to `Nc1nc(-c2ccccc2O)cc(-c2cccc(NC(=O)CCN3CCCCC3)c2)c1CO` [Example 7-3, N-{3-[2-amino-3-(hydroxymethyl)-6-(2-hydroxyphenyl)-4-pyridinyl]phenyl}-3-(1-piperidinyl)propanamide], the IC50 at human IKK-β was in the range of 500 to 2000 nM; in assay [1] (Homo sapiens, A549, 24 h), 1000 to 10000 nM.
The like results for `CC(=O)Nc1ccc(-c2cc(-c3ccccc3O)nc(N)c2CO)cc1O` [Example 8-04] were, in that order, below 500 nM and below 1000 nM.
In the case of `CC(=O)Nc1ccc(-c2cc(-c3ccccc3O)nc(N)c2CO)cc1O` [Example 8-05], the results for the IC50 (at human IKK-β; in assay [1] (24 hrs)) were below 500 nM and 1000 to 10000 nM, respectively.
With `CC(=O)Nc1ccc(-c2cc(-c3ccccc3O)nc(N)c2C#N)cc1OCCN1CCCCC1` [Example 9, N-{4-[2-amino-3-cyano-6-(2-hydroxyphenyl)-4-pyridinyl]-2-[2-(1-piperidinyl)ethoxy]phenyl}acetamide ditrifluoroacetate], the IC50 on human IKK-β was in the range of 500 to 2000 nM; in assay [1] (Homo sapiens, A549, 24 h), 1000 to 10000 nM.
